Data on one compound can be found in patent US20240410831A1, “Multi-Mode Zinc-Selective Emission-Ratiometric Fluorescent Probes for Biological Application” (Georgia Tech Research Corporation, priority 2023, published 2024).

A short description of data set [1]: Fluorometric competition titration with EGTA, Zn(II) complex stability constant. In kind it is binding. Here is the method: FIG. 6A illustrates the fluorometric determination of the Zn(II) complex stability constant of probe 8 via competition titration with EGTA. (A) of FIG. 6A illustrates an exemplary Formula I, Formula II, and/or a derivative thereof (e.g., for example probe 8) (10 μM) that was equilibrated with molar equivalent of Zn(OTf)2 in chelexed PIPES buffer (pH 7.0, 10 mM PIPES, 0.1 M KCl, 25° C.) containing 100 μM 4:1 DMPC:DMPG liposomes and titrated with EGTA to a final concentration of 50 μM. The fluorescence spectra (excitation at 405 nm) were analyzed by non-linear least squares fitting. (B) FIG. 6A illustrates an exemplary change in fluorescence response at 515 nm with the corresponding fit using the equilibrium system model as defined in the table of FIG. 6B.
The binding affinity of Formula I, Formula II, and/or a derivative thereof (e.g., for example probe 8) was analyzed in PIPES buffer containing 100 μM of 4:1 DMPC:DMPG liposomes (pH 7.0, 10 mM PIPES, 0.1 M KCl, 25° C.). […] The binding affinity is over 400-fold weaker than chromis-1 acid, and approximately 10-fold lower than chromis-1 ester. The discrepancy in binding affinities is likely due to a combination of two factors. […]
A solution of Formula I, Formula II, and/or a derivative thereof (e.g., for example probe 8) was diluted from a 3.0 mM DMSO stock solution to a final concentration of 10 μM in Chelex®-treated PIPES buffer (10 mM, 0.1 M KCl, pH 7.0) containing 10 μM of Zn(OTf)2 and 100 μM of liposomes (4:1 mixture of DMPC and DMPG). […] After the addition of each aliquot of EGTA, the solution was allowed to equilibrate for 1 minute, and a fluorescence spectrum (excitation at 405 nm, spectral window 415-665 nm) was acquired. The titration was conducted in triplicate, and the data were analyzed by nonlinear least-squares fitting over the entire spectral range using the SPECFIT software package.

Data set [2] in a line: Molar ratio titration with Zn(OTf)2 in methanol (absorption and fluorescence). In kind it is physicochemical. The note with it: for fluorescence emission maximum: excitation at 395 nm. Here is the method:
To prevent solution aggregation of the charge-neutral compounds exemplified by Formula I, Formula II, and/or a derivative thereof (e.g., for example probe 8) in PIPES buffer, the initial solution characterization was conducted in analytical grade MeOH. […] Consistent with an increased ground- and excited state polarization upon Zn(II) complexation, the absorption maximum is red-shifted by 34 nm from 376 nm to 410 nm. Sharp isosbestic points at 306 nm and 395 nm, as well as saturation at an equimolar Zn(II) concentration are indicative of a well-defined solution equilibrium involving only the free probe 8 and a discrete Zn(II)-complex with 1:1 metal-ligand stoichiometry.
Similarly, the fluorescence emission maximum of Formula I, Formula II, and/or a derivative thereof (e.g., for example probe 8) is red-shifted from 460 nm to 513 nm upon Zn(II)-binding. […] To provide a direct comparison with previous probes, probe 8 was also analyzed in aqueous buffer containing DMPC/DMPG liposomes that mimic the lipid bilayers present in cells.
A solution of Formula I, Formula II, and/or a derivative thereof (e.g., for example probe 8) (10 μM) in analytical grade MeOH prepared in a quartz cuvette with a 1-cm pathlength was titrated with Zn(OTf)2 (from a 0.3 mM aqueous stock solution) in 1.0 μM (0.1 molar equiv.) increments. After each aliquot of Zn(II), the solution was equilibrated for 1 minute by magnetic stirring, and an absorbance (spectral window: 250-500 nm) and fluorescence spectrum (excitation at 395 nm, spectral window 405-705 nm) were acquired. In another embodiment, a solution of Formula I, Formula II, and/or a derivative thereof (e.g., for example probe 8 in FIG. 4H) (10 PM) in Chelex®-PIPES buffer (10 mM, 0.1 M KCl, pH 7.0, 25° C.) containing 100 μM of liposomes (4:1 mixture of DMPC and DMPG) prepared in a quartz cuvette with a 1-cm pathlength was titrated with Zn(OTf)2 (from a 0.3 mM aqueous stock solution) in 1.0 μM (0.1 molar equiv.) increments. After each aliquot of Zn(II), the solution was equilibrated for 1 minute by magnetic stirring, and a fluorescence spectrum (excitation: 405 nm, spectral window 420-700 nm) was acquired.

The structures appear in SMILES notation.

For `COc1ccc2c(c1)C(C)(C)c1nc(-c3cccc(CN(Cc4ncccn4)Cc4ncccn4)n3)sc1-2` [probe 8], in data set [1] (Zn(II) affinity compared with chromis-1 acid), the “binding affinity weaker than chromis-1 acid” value is on record as “over 400 fold”. The “binding affinity lower than chromis-1 ester” value in data set [1] (Zn(II) affinity compared with chromis-1 ester) is reported as “approximately 10 fold”. Besides, in data set [1] (pH 7.0, ionic background 0.1 M KCl, 25° C., liposomes, read-out: apparent dissociation constant Kd for Zn(II)), the Kd came to 18.5 nM. Also, the “red shift of absorption maximum upon Zn(II) complexation” value in data set [2] was 34 nm. Moreover, the absorption maximum in data set [2] (Zn(II) complex) was determined as 410 nm; in data set [2] (free probe, 10 μM) it was 376 nm. The figures for the fluorescence emission maximum in data set [2] (Zn(II)-bound) and in data set [2] (free probe) were 513 nm and 460 nm, respectively.
